Columns and labels:
MOLT-4 = experiment: Tested for the in vitro cytotoxicity against MOLT-4 leukemia cell line; assay type: functional, Homo sapiens
[1] = Average in vitro cytotoxicity was calculated from all cell lines tested; assay type: functional
[2] = Average in vitro cytotoxicity was calculated from all cell lines tested,; assay type: functional
[3] = Average in vitro cytotoxicity was calculated from all cell lines tested, activity expressed as average log TGI50.; assay type: functional; settings: read-out: Log TGI (converted)
DU-145 = experiment: Tested for the in vitro cytotoxicity against DU-145 prostate cancer cell line; assay type: functional, Homo sapiens
OVCAR-8 = experiment: Tested for the in vitro cytotoxicity against OVCAR-8 ovarian cancer cell lines,; assay type: functional, Homo sapiens
MCF7 = experiment: Tested for the in vitro cytotoxicity against MCF-7 breast cancer cell line; assay type: functional, Homo sapiens
ACHN = experiment: Tested for the in vitro cytotoxicity against ACHN renal cancer cell line; assay type: functional, Homo sapiens
HCC 2998 = experiment: Tested for the in vitro cytotoxicity against HCC2998 colon cancer cell lines; assay type: functional, Homo sapiens
NCI-H23 = experiment: Tested for the in vitro cytotoxicity against NCI-H23 non-small cell lung cancer cell line; assay type: functional, Homo sapiens
SF-295 = experiment: Tested for the in vitro cytotoxicity against SF-295 CNS tumor cell lines; assay type: functional, Homo sapiens
M14 = experiment: Tested for the in vitro cytotoxicity against M-14 melanoma; assay type: functional, Homo sapiens
KB [4] = experiment: Tested for the cellular protein DNA complex formation in KB cells at concentration of 25 uM; assay type: functional, Homo sapiens
KB [5] = experiment: Tested for the cytotoxicity against KB-7d cellsTested for the cytotoxicity against KB cells; ID50/LD50 = 0.2/>10; assay type: functional, cell-based
KB [6] = experiment: Tested for the cellular protein DNA complex formation in KB cells at the concentration of 2.5 uM
KB [7] = experiment: Tested for the cytotoxicity against KB cells; ID50/LD50 = 0.08/>10; assay type: functional, cell-based; settings: Homo sapiens
[8] = biological target: DNA topoisomerase II (Homo sapiens) (UniProt P11388+Q02880); experiment: Tested for the inhibition of DNA topoisomerase II; assay type: protein assay
KB [9] = experiment: Tested for the cellular protein DNA complex formation in KB cells at concentration of 2.5 uM; assay type: functional, Homo sapiens
KB [10] = experiment: Tested for the cellular protein DNA complex formation in KB cells at the concentration of 2.5 uM; assay type: functional, Homo sapiens

| SMILES | LC50 [1] | GI50 [2] | TGI [3] | GI50 (ACHN) | GI50 (SF-295) | GI50 (MOLT-4; Homo sapiens, MOLT-4) | Activity (KB [4]) | GI50 (DU-145; Homo sapiens, DU-145) | GI50 (OVCAR-8; Homo sapiens, OVCAR-8) | GI50 (MCF7; Homo sapiens, MCF7) | GI50 (ACHN; Homo sapiens, ACHN) | GI50 (HCC 2998; Homo sapiens, HCC 2998) | IC100 [8] | GI50 (NCI-H23; Homo sapiens, NCI-H23) | GI50 (SF-295; Homo sapiens, SF-295) | GI50 (M14; Homo sapiens, M14) | further results |
| --- | --- | --- | --- | --- | --- | --- | --- | --- | --- | --- | --- | --- | --- | --- | --- | --- | --- |
| COc1cc([C@@H]2c3cc4c(cc3[C@@H](NCCNCCO)[C@H]3COC(=O)[C@H]23)OCO4)cc(OC)c1O [listing 1 of 2 here] | 83.2 µM | 1.86 µM | 21.4 µM | 0.339 µM | 1.02 µM |  |  |  |  |  |  |  |  |  |  |  | GI50 (MOLT-4): 0.0269 µM; GI50 (DU-145): 2.29 µM; GI50 (OVCAR-8): 2.4 µM; GI50 (MCF7): 0.0955 µM; GI50 (HCC 2998): 3.39 µM; GI50 (NCI-H23): 0.661 µM; GI50 (M14): 4.07 µM |
| COc1cc([C@@H]2c3cc4c(cc3[C@@H](Nc3ccc(NC(=O)c5cc(NC(=O)c6cc([N+](=O)[O-])cn6C)cn5C)cc3)[C@H]3COC(=O)[C@H]23)OCO4)cc(OC)c1O | 81.3 µM | 1.17 µM | 28.8 µM |  |  | < 0.01 µM | 26% | 0.372 µM | 0.759 µM | 0.0479 µM | 0.229 µM | 6.03 µM | 100 µM | 0.724 µM | 4.9 µM | 5.5 µM | Ratio (KB [5]): ID50/LD50 = 0.2/>10; Activity (KB [6]): 30%; Cytotoxicity (KB [7]): ID50/LD50 = 0.08/>10 |
| COc1cc([C@@H]2c3cc4c(cc3[C@@H](Nc3ccc(NC(=O)c5cc([N+](=O)[O-])cn5C)cc3)[C@H]3COC(=O)[C@H]23)OCO4)cc(OC)c1O [listing 1 of 3 here] |  |  |  |  |  |  |  |  |  |  |  |  | 12.5 µM |  |  |  |  |
| COc1cc([C@@H]2c3cc4c(cc3[C@@H](Nc3ccc(NC(=O)c5cc([N+](=O)[O-])cn5C)cc3)[C@H]3COC(=O)[C@H]23)OCO4)cc(OC)c1O [listing 2 of 3 here] |  | 0.123 µM | 1.95 µM |  | 0.0513 µM | < 0.01 µM | 100% | 0.017 µM | 0.0977 µM | < 0.01 µM | 0.0118 µM | 0.224 µM |  | 0.049 µM |  | 0.0457 µM | Activity (KB [9]): 225% |
| COc1cc([C@@H]2c3cc4c(cc3[C@@H](NC(=O)NO)[C@H]3COC(=O)[C@H]23)OCO4)cc(OC)c1O | 100 µM | 9.77 µM | 93.3 µM |  |  | 4.9 µM |  | 7.24 µM | 34.7 µM | 7.76 µM | 6.03 µM | 4.07 µM |  | 9.33 µM | 5.01 µM | 37.2 µM |  |
| COc1cc([C@@H]2c3cc4c(cc3[C@@H](NCCNCCO)[C@H]3COC(=O)[C@H]23)OCO4)cc(OC)c1O [listing 2 of 2 here] | 66.1 µM | 1.35 µM | 12 µM | 2.34 µM | 0.178 µM |  |  | 2.75 µM | 2.63 µM |  |  | 1.26 µM |  | 1.32 µM |  | 3.98 µM | GI50 (MOLT-4): < 0.01 µM; GI50 (MCF7): 0.0389 µM |
| COc1cc([C@@H]2c3cc4c(cc3[C@@H](O[C@@H]3O[C@@H]5CO[C@@H](C)O[C@H]5[C@H](O)[C@H]3O)[C@H]3COC(=O)[C@H]23)OCO4)cc(OC)c1O [ETOPOSIDE] |  | 9.77 µM | 77.6 µM |  |  | 1.02 µM | 100% | 0.851 µM | 16.6 µM | 4.37 µM | 0.871 µM | 18.2 µM | 100 µM | 8.32 µM | 10 µM | 0.813 µM | Activity (KB [10]): 100% |
| COc1cc([C@@H]2c3cc4c(cc3[C@@H](Nc3ccc(NC(=O)c5cc([N+](=O)[O-])cn5C)cc3)[C@H]3COC(=O)[C@H]23)OCO4)cc(OC)c1O [listing 3 of 3 here] |  | 0.1 µM | 0.525 µM | 0.0141 µM | 0.138 µM |  |  |  |  |  |  |  |  |  |  |  | GI50 (DU-145): 0.0144 µM; GI50 (OVCAR-8): 0.126 µM; GI50 (HCC 2998): 0.245 µM; GI50 (NCI-H23): 0.0389 µM; GI50 (M14): 0.0631 µM |
| CNCCN[C@@H]1c2cc3c(cc2[C@@H](c2cc(OC)c(O)c(OC)c2)[C@H]2C(=O)OC[C@@H]21)OCO3 | 38.9 µM | 0.24 µM | 3.02 µM |  |  | < 0.01 µM |  | 0.363 µM | 0.309 µM | 0.0144 µM | 0.0661 µM | 0.269 µM |  | 0.162 µM | 0.0295 µM | 0.398 µM |  |

From ChEMBL document CHEMBL1129858, “Antitumor agents. 1771. Design, syntheses, and biological evaluation of novel etoposide analogs bearing pyrrolecarboxamidino group as DNA topoisomerase II inhibitors” (1997)
